{
  "source": "patent US9522928B2",
  "about": "“Mannosylated compounds useful for the prevention and the treatment of infectious diseases” (UNIVERSITE DE STRASBOURG, priority 2011, dated 2016)",
  "key": {"Dengue virus 2 (DV2)": {"tested_on": "Dengue virus 2 (DV2)", "assay": "Dengue virus (DV2) cis-infection of human DCs", "assay_type": "cell-based", "protocol": "Compounds of the invention (TriManC24, TriManinsatC24) were serially diluted in water. Human DCs (2.5×10^5 in 200 μl) in 48-well plates were pre-treated with different concentrations of compounds or culture medium alone, in RPMI 1640 medium […] for 30 min at 37° C. They were exposed to DV-2 at a multiplicity of infection of 1.0, for 2 h at 37° C. Cells were washed and cultured in complete RPMI medium (condition 1) or in complete medium containing the tested compounds (TriManC24, TriMannsatC24) (condition 2). After 48 h, supernatants were titered and cells were subjected to intracellular detection of viral antigens. DCs were fixed with 4% (v/v) paraformaldehyde and permeabilized with 0.1% (v/v) Triton X-100 for 3 min at room temperature. After washing, they were labeled with mouse anti-DV type 2 monoclonal antibody (3H5.1, Millipore) and stained with APC -conjugated rat anti-mouse IgG1. Fluorescence intensity of the cells was analyzed by flow cytometry (FACSCalibur, Becton Dickinson), using the Cell Quest Pro software.\nThere are four different dengue serotypes (1-4), and we have used DV type 2 (DV2) to further investigate the ability of the compounds of the invention (TriManC24 and TriManinsatC24) to inhibit the infection of human DCs. These cells were pre-treated with different concentrations of compounds or culture medium alone, for 30 min at 37° C. They were then exposed to DV2 for 2 hours at 37° C. Cells were washed to remove excess virions and compounds, and further cultured either in the absence (condition 1) or in the presence (condition 2) of the tested compounds. After 48 hours, cells were subjected to intracellular detection of viral antigens, and supernatants were titrated (not shown). […] FIG. 3A and FIG. 3B show the percentage of infected DCs when incubated with distinct concentrations of TriManinsatC24 in condition 1 and in condition 2, respectively. The histograms clearly show the protecting effects of TriManinsatC24, in particular in condition 2 wherein TriManinsatC24 at 10, 50 and 100 μM enabled the percentage of infected DCs to be reduced down to 40%, 20% and 2% respectively."}, "HIV-1 X4": {"tested_on": "HIV-1 X4", "assay": "HIV-1 X4 trans-infection of MAGI-CCR5 cells mediated by DCs", "assay_type": "cell-based", "protocol": "(§1) ManC1, […] (comparative) and compounds of the invention (ManC24, ManC17, TriManC24, TriDiManC24, TriManinsatC24 and ManinsatC24) were serially diluted in water. Human DCs (1×10^5 in 200 μl ) were pre-treated with different concentrations of compounds, or mannan (Sigma) or culture medium alone, in RPMI 1640 medium containing 10% FBS for 45 min at 37° C., prior infection with HIV-1 (100 ng of p24Gag) for 3 h. Excess free virus and molecules were removed by three washes. DCs were then cocultured with MAGI -CCR5 cells (1×10^5) at 37° C. plated in a 48-well plate. After two days, viral infection of MAGI-CCR5 cells was quantitated following beta-galactosidase assays and enumerating blue cells by light microscopy.\n(§2) The IC50 were determined by serial dilution of each compound. The trans-infection assays were repeated a minimum of three times, and the IC50 determined using KaleidaGraph.\nTo investigate the ability of the compounds of the invention to inhibit HIV-1 trans infection, we chose to infect human DCs in order to best mimic in vivo conditions. […] This procedure allows precise quantification of HIV-1 replication in reporter MAGI-CCR5 cells by detection of beta-galactosidase activity. […] Upon viral entry leading to viral Tat expression and activation of the LTR, these cells permit quantification of HIV trans-infection after two days."}, "HIV-1 R5": {"tested_on": "HIV-1 R5", "assay": "HIV-1 R5 trans-infection of MAGI-CCR5 cells mediated by DCs", "assay_type": "cell-based", "protocol": "as §1, §2\nTo investigate the ability of the compounds of the invention to inhibit HIV-1 trans infection, we chose to infect human DCs in order to best mimic in vivo conditions. Human DCs were exposed to different compounds (namely, Mannan (control), ManC1 (comparative), ManC11 (comparative), ManC17, ManC24, TriManC24, TriDiManC24, ManinsatC24 and TriManinsatC24) for 45 min at 37° C., before inoculation with HIV-1 (strains R5 and X4) for 3 hours. After extensive washings to remove unbound virions and mannosides, DCs were then co-cultured with MAGI-CCR5 cells. This procedure allows precise quantification of HIV-1 replication in reporter MAGI-CCR5 cells by detection of beta-galactosidase activity. These cells express an integrated copy of the HIV long terminal repeat (LTR) fused to the beta-galactosidase reporter gene, and express the CD4 receptor and the CCR5 and CXCR4 co-receptors, required for entry of HIV-1 R5 and X4 respectively. Upon viral entry leading to viral Tat expression and activation of the LTR, these cells permit quantification of HIV trans-infection after two days."}, "[1]": {"assay": "Hydrodynamic diameter of micelles (Zetasizer Nano ZS)", "assay_type": "physicochemical", "conditions": "in water at 0.5 mg/ml", "protocol": "DiManinsatC24 was prepared according a procedure similar to that used for the preparation of TriDiManC24 except that: • pentacosanoic acid was replaced by 10,12-pentacosadiynoic acid, and • before the coupling with 10,12-pentacosadiynoic acid, the benzyl groups of compound 33 were replaced by acetyl group so as to provide compound 108 (as illustrated in FIG. 3E). ^1H NMR δ(ppm) (MeOD, 400 MHz) 4.87 (s, 3H), 4.73 (s, 3H), 3.64-3.50 (m, 14H), 3.46-3.20 (m, 76H), 2.97-2.93 (m, 6H), 2.33 (t, 6H, J=6.8 Hz), 2.09-1.96 (m, 6H), 1.08-1.05 (m, 32H), 0.66 (t, 3H, J=6.8 Hz). ^13C NMR δ (ppm) (MeOD, 100 MHz) 173.7, 168.8, 104.2, 101.2, 80.6, 80.4, 75.1, 74.7, 72.5, 72.2, 72.1, 71.9, 71.8, 71.7, 71.6, 71.4, 69.4, 69.1, 68.9, 68.7, 68.6, 68.0, 63.2, 63.1, 42.2, 37.0, 34.8, 33.7, 33.1, 30.8, 30.7, 30.6, 30.5, 30.4, 30.2, 29.5, 28.1, 27.0, 26.0, 23.7, 19.7, 14.4. IR (neat film, cm^−1): 3353, 2924, 1716, 1636, 1350, 1182, 1095, 1035, 1009, 837, 669. • Determination of critical micelle concentrations (CMCs) and size of particles. The hydrodynamic diameters of micelles of glycolipids were measured in water using a Zetasizer Nano ZS system (Malvern Instruments). The CMCs were measured using pyrene as an extrinsic fluorescent probe and were carried out as described (Perino et al., 2011). Briefly, a range of glycolipid samples were dissolved in water (1 ml), with concentrations ranging from 1.0 to 0.001 mg/ml. A stock solution of pyrene (1 mM) was prepared in dimethyl sulfoxyde and was added to each sample. Fluorescent emission of pyrene was measured at 25° C. using a Fluorolog spectrofluorometer (Jobin Yvon, Horiba). The intensities of fluorescence emission were determined at 374 nm (I374) and at 383 nm (I383), with an excitation at a 339 nm wavelength. The ratios I374/I383 were calculated and plotted against the glycolipid concentration. The CMC value was determined at the intersection of the two straight lines."}},
  "data": [
    {"compound": "CCCCCCCCCCCCCCCCCCCCCCCCC(=O)NC(COCCC(=O)NCCOCCOCCOCCOC1OC(CO)C(O)C(O)C1O)(COCCC(=O)NCCOCCOCCOCCOC1OC(CO)C(O)C(O)C1O)COCCC(=O)NCCOCCOCCOCCOC1OC(CO)C(O)C(O)C1O", "note": "(stereo not shown) [TriManC24]", "values": [
      {"measurement": "inhibition of Dengue virus infection of DCs (in words)", "setting": "Dengue virus 2 (DV2)", "result": "able to inhibit the direct infection of DCs by Dengue virus"},
      {"measurement": "residual level of trans-infection", "setting": "HIV-1 X4", "result": 15, "unit": "%"},
      {"measurement": "residual level of trans-infection", "setting": "HIV-1 R5", "result": 20, "unit": "%"},
      {"measurement": "hydrodynamic diameter of micelles", "setting": "[1]", "result": 39, "unit": "nm"}
    ]}
  ]
}
